This note sets out measurements from PMC8901636, “Preclinical studies of Flonoltinib Maleate, a novel JAK2/FLT3 inhibitor, in treatment of JAK2^V617F-induced myeloproliferative neoplasms” (Blood Cancer Journal, 2022).

In general, bioavailability refers to the share of a dose that reaches the circulation, judged against a reference dose that is usually intravenous.

Where only a bound is given, the exact number is not on record here.

One series relates to MV-4-11. Briefly: MTT assay for cell proliferation. As to conditions: Homo sapiens, MV4-11; MV-4-11; FLT3-ITD expression; MTT 72 h; read-out: IC50(μM) ± SD, tumor cell proliferation. Type of series: cell-based. A general note: Formazan colour is commonly taken as a measure of viable cells.
The next series deals with Ba/F3-FLT3-ITD^D835V. Briefly: MTT assay for cell proliferation. Conditions: Mus musculus; Ba/F3-FLT3-ITD^D835V; MTT 72 h; read-out: IC50(μM) ± SD, tumor cell proliferation. It is filed as cell-based, Murine.
A further series has as its system Molm-13. Put plainly: MTT assay for cell proliferation. Type of series: cell-based. As to conditions: Homo sapiens; Molm-13; FLT3-ITD expression; MTT 72 h; read-out: IC50(μM) ± SD, tumor cell proliferation.
The next series has as its system Ba/F3-JAK2^WT. Briefly: MTT assay for cell proliferation. Type of series: cell-based, Murine. Conditions: Mus musculus; Ba/F3-JAK2^WT; IL-3-dependent growth; MTT 72 h; read-out: IC50(μM) ± SD, tumor cell proliferation.
Series [1] deals with Ba/F3-EPOR-JAK2^V617F cells. Put plainly: Ba/F3-EPOR-JAK2^V617F malignancy mouse model. As to conditions: 30 mg/kg bid p.o.
A short description of series [2]: Bioavailability. Conditions: dog, in vivo; dogs; data not shown.
The next series deals with JAK2^V617F. Put plainly: JAK2^V617F bone marrow transplantation (BMT) myelofibrosis model. Conditions: 30 mg/kg bid p.o. Type of series: in vivo, BALB/c mice.
The next series deals with Ba/F3-FLT3-ITD. Briefly: MTT assay for cell proliferation. As to conditions: Mus musculus; Ba/F3-FLT3-ITD; MTT 72 h; read-out: IC50(μM) ± SD, tumor cell proliferation. Type of series: cell-based, Murine.
Another series relates to Ba/F3-JAK2^V617F cells. Briefly: Ba/F3-JAK2^V617F disease model.
For the next series, the system named is Ba/F3-EPOR. Briefly: MTT assay for cell proliferation. Type of series: cell-based, Murine. As to conditions: Mus musculus; Ba/F3-EPOR; IL-3-dependent growth; MTT 72 h; read-out: IC50(μM) ± SD, tumor cell proliferation.
For the next series, the system named is Ba/F3-JAK2^V617F. Put plainly: MTT assay for cell proliferation. It is filed as cell-based, Murine. Conditions: Mus musculus; Ba/F3-JAK2^V617F; MTT 72 h; read-out: IC50(μM) ± SD, tumor cell proliferation.
Another series concerns Ba/F3-FLT3-ITD^F691. Put plainly: MTT assay for cell proliferation. As to conditions: Mus musculus; Ba/F3-FLT3-ITD^F691; MTT 72 h; read-out: IC50(μM) ± SD, tumor cell proliferation. It is filed as cell-based, Murine.
The next series relates to HEL. Briefly: MTT assay for cell proliferation. Type of series: cell-based. Conditions: Homo sapiens, JAK2V617F, MTT 72 h, read-out: IC50(μM) ± SD, tumor cell proliferation.
The test system of a further series is Ba/F3-EPOR-JAK2^V617F. Briefly: MTT assay for cell proliferation. Type of series: cell-based, Murine. As to conditions: Mus musculus; Ba/F3-EPOR-JAK2^V617F; MTT 72 h; read-out: IC50(μM) ± SD, tumor cell proliferation.
Series [3] can be described thus: Bioavailability. As to conditions: rat, in vivo; rats; data not shown.

Procedure for Ba/F3-FLT3-ITD^D835V: (§1) For in vitro inhibition assays, cells were seeded in 96-well culture plates with a density of 15,000–20,000 cells/well after the cells reached 70–90% confluence. […] MTT (3-(4, 5-dimethylthiazol-2-yl)-2, 5-diphenyltetrazolium bromide) (Cat. No. 1334GR001; BioFroxx) assay was conducted in order to examine viability. The IC50 values were fitted using GraphPad Prism 7.0.
Procedure for Ba/F3-FLT3-ITD^F691: as §1
Procedure for Ba/F3-JAK2^WT: as §1
Procedure for HEL: as §1
Procedure for MV-4-11: as §1
Procedure for Molm-13: as §1

As for `Cc1cnc(Nc2ccc(OCCN3CCCC3)cc2)nc1Nc1cccc(S(=O)(=O)NC(C)(C)C)c1` [Fedratinib, reference compound], the IC50 in the series with MV-4-11 turned out to be 0.26 ± 0.11 µM; in the series with Ba/F3-FLT3-ITD^D835V it was 0.37 ± 0.04 µM; in the series on Molm-13, 0.17 ± 0.01 µM; in the series on Ba/F3-JAK2^WT it was 0.68 ± 0.12 µM; in the series on Ba/F3-FLT3-ITD it was 0.21 ± 0.05 µM; in the series on Ba/F3-EPOR, 0.97 ± 0.23 µM. The IC50 stood at 0.61 ± 0.13 µM with Ba/F3-JAK2^V617F, 0.74 ± 0.15 µM in the series with Ba/F3-FLT3-ITD^F691, 0.77 ± 0.36 µM in the series with HEL and 1.71 ± 0.04 µM in the series with Ba/F3-EPOR-JAK2^V617F. For the same compound, in series [1] (16 days), the “spleen suppression rate” value is -40.23%. In addition, the median survival time in series [1] (vehicle 19 days) is listed as 22 days; in the series with JAK2^V617F (vehicle 133.5 days), more than 180 days. The bioavailability in the series “Bioavailability [2]” was determined as 37%; in “Bioavailability [3]”, 19%. In the series with JAK2^V617F (figure prints it with a minus sign over Spleen Wight (mg)), this compound gave an inhibition of splenomegaly of 90.56%. The “inhibition of the spleen growth” value in the series on Ba/F3-JAK2^V617F cells (30 mg/kg bid p.o., 22 days, figure prints it with a minus sign over Spleen Weight (mg)) is on record as 67.44%. In addition, in the series with Ba/F3-JAK2^V617F cells (30 mg/kg bid p.o., vehicle 25 days), the median survival came out at 28 days. Further, the “body weight during treatment” value with Ba/F3-JAK2^V617F cells (any dose) is “no obvious body weight decrease”.
